Results reported in US12138256B2, “Treatment of cardiopulmonary disorders” (Bayer Aktiengesellschaft, priority 2021, dated 2024).
Values joined by “and” are separate entries in the source; they are usually repeats but may differ in a detail not shown here. Equal values may be shown once.

Experiments:
rabbit saphenous artery = assay: Vasorelaxant effect in vitro: phenylephrine-induced contraction of rabbit saphenous artery rings (C-1.1); conditions: mean +/− SEM
Method: Rabbits were anaesthetized and sacrificed by intravenous injection of thiopental sodium (about 50 mg/kg) and exsanguinated. The saphenous artery was removed and divided into rings 3 mm wide. The rings were mounted singly on in each case a pair of triangular hooks open at the end and made of 0.3 mm-thick special wire (Remanium®). Each ring was placed under an initial tension in 5 ml organ baths with Krebs-Henseleit solution which was at 37° C., was gassed with carbogen and had the following composition: NaCl 119 mM; KCl 4.8 mM; CaCl2)×2 H2O 1 mM; MgSO4×7 H2O 1.4 mM; KH2PO41.2 mM; NaHCO325 mM; glucose 10 mM; bovine serum albumin 0.001%. The force of contraction was detected with Statham UC2 cells, amplified and digitized via A/D converters (DAS-1802 HC, Keithley Instruments, Munich) and recorded in parallel on chart recorders. Contractions were induced by addition of phenylephrine.
The concentration necessary to reduce the contraction reached in the preceding control by 50% was calculated from this (IC50). The standard application volume was 5 μl. The proportion of DMSO in the bath solution corresponded to 0.1%.

[1] = system: anesthetized PAH minipigs; assay: PAH minipig model: intratracheal application of dry powder formulations and different hydrates (PennCentury insufflator); assay type: in vivo, Göttingen minipig; conditions: for PAP % changes vs. baseline: 375 μg/kg i.t., each animal; for BP / PAP: micronized 375 μg/kg intratracheal @90 min
From the text: After characterization of the effects of comparative example 11 after nebulization of compound solutions, in a further step the effects of crystalline forms of comparative example 11, e.g. sesquihydrate, e.g. example 6e on PAP and BP after inhaled application of different dry powder lactose formulations (table C2.1.8) were studied in anesthetized PAH minipigs.
As reference pure Lactose vehicle was applied in the beginning of each experiment.

[2] = time not printed, 1st row after 310
[3] = time not printed, 2nd row after 310

With O=C(O)CCCCN(CCc1ccccc1OCc1ccc(CCc2ccccc2)cc1)Cc1ccc(C(=O)O)cc1 [comparative example 1 (Cinaciguat)] the “% contraction (PE-induced contraction of rabbit saphenous artery)” value (“% contraction” for short) (rabbit saphenous artery; 10^−6 M/L, incubation time 0.5 h) was 19 ± 6.1%, the “% contraction” value (rabbit saphenous artery; 10^−7 M/L, incubation time 0.5 h) was 28 ± 4.2% and the “% contraction” value (rabbit saphenous artery; 10^−7 M/L, incubation time 2.5 h) was 33 ± 5.8%. The “% contraction” value (rabbit saphenous artery; 10^−8 M/L, incubation time 0.5 h) was 54 ± 5.2%, the “% contraction” value (rabbit saphenous artery; 10^−8 M/L, incubation time 2.5 h) was 48 ± 6.0% and the “% contraction” value (rabbit saphenous artery; 10^−9 M/L, incubation time 0.5 h) was 85 ± 4.2%. For the same molecule, the “% contraction” value (rabbit saphenous artery; 10^−9 M/L, incubation time 2.5 h) was 75 ± 4.6%, the “% contraction” value (rabbit saphenous artery; 10^−10 M/L, incubation time 0.5 h) was 101 ± 1.7% and the “% contraction” value (rabbit saphenous artery; 10^−10 M/L, incubation time 2.5 h) was 93 ± 2.6%. The “% contraction” value (rabbit saphenous artery; 10^−11 M/L, incubation time 0.5 h) was 97 ± 1.2%.

In the case of O.O.O.O=C(O)c1ccc(CCN(CCc2ccccc2OCc2ccc(-c3ccc(C(F)(F)F)cc3)cc2Cl)[C@H]2CCCc3nc(C(=O)O)ccc32)cc1.O=C(O)c1ccc(CCN(CCc2ccccc2OCc2ccc(-c3ccc(C(F)(F)F)cc3)cc2Cl)[C@H]2CCCc3nc(C(=O)O)ccc32)cc1 [example 6e, (5S)-{[2-(4-Carboxyphenyl)ethyl][2-(2-{[3-chloro-4′-(trifluoromethyl)biphenyl-4-yl]methoxy}phenyl)-ethyl]amino}-5,6,7,8-tetrahydroquinoline-2-carboxylic acid sesquihydrate], the “efficacy with regard to PAP reduction as well as systemic BP reduction” value ([1]; 1.5 mg/4 kg (=375 μg/kg) intratracheally, micronized) is reported as “comparable efficacy”, the “effect on PAP and BP after i.t. application” value ([1]; lactose formulation I 7.5 μg/kg, II 22.5 μg/kg, micronized sesquihydrate 375 μg/kg, n=3) is reported as “decrease of PAP without any effects on BP” and the “time to maximum effect on PAP after i.t. application” value ([1]; lactose formulation I 7.5 μg/kg, lactose formulation II 22.5 μg/kg, micronized sesquihydrate 375 μg/kg) is reported as “approximately 80 min”. The “PAP % changes vs. baseline” value ([1]; time 80) was 100.0%, the “PAP % changes vs. baseline” value ([1]; time 90, sesquihydrate) was 98.9% and 103.6% and 99.8% and the “PAP % changes vs. baseline” value ([1]; time 100, sesquihydrate) was 99.5% and 101.4% and 97.3%. For the same molecule, the “PAP % changes vs. baseline” value ([1]; time 110, sesquihydrate) was 89.3% and 98.7% and 86.8%, the “PAP % changes vs. baseline” value ([1]; time 120, sesquihydrate) was 84.0% and 95.6% and 75.7% and the “PAP % changes vs. baseline” value ([1]; time 130, sesquihydrate) was 78.9% and 93.7% and 70.2%. The “PAP % changes vs. baseline” value ([1]; time 140, sesquihydrate) was 75.2% and 91.8% and 67.5%, the “PAP % changes vs. baseline” value ([1]; time 150, sesquihydrate) was 74.0% and 76.0% and 65.4% and the “PAP % changes vs. baseline” value ([1]; time 160, sesquihydrate) was 71.0% and 79.5% and 65.9%. The “PAP % changes vs. baseline” value ([1]; time 170, sesquihydrate) was 68.5% and 74.3% and 61.5%, the “PAP % changes vs. baseline” value ([1]; time 180, sesquihydrate) was 63.2% and 80.8% and 62.0% and the “PAP % changes vs. baseline” value ([1]; time 190, sesquihydrate) was 61.5% and 80.8% and 58.6%. For the same molecule, the “PAP % changes vs. baseline” value ([1]; time 200, sesquihydrate) was 62.3% and 80.3% and 60.2%, the “PAP % changes vs. baseline” value ([1]; time 210, sesquihydrate) was 61.0% and 80.7% and 59.4% and the “PAP % changes vs. baseline” value ([1]; time 220, sesquihydrate) was 59.5% and 86.3% and 57.8%. For the same molecule, the “PAP % changes vs. baseline” value ([1]; time 230, sesquihydrate) was 58.6% and 82.6% and 57.8%, the “PAP % changes vs. baseline” value ([1]; time 240, sesquihydrate) was 59.3% and 81.5% and 57.6% and the “PAP % changes vs. baseline” value ([1]; time 250, sesquihydrate) was 59.3% and 82.2% and 56.1%. For the same molecule, the “PAP % changes vs. baseline” value ([1]; time 260, sesquihydrate) was 58.8% and 82.7% and 57.6%, the “PAP % changes vs. baseline” value ([1]; time 270, sesquihydrate) was 59.9% and 78.3% and 55.4% and the “PAP % changes vs. baseline” value ([1]; time 280, sesquihydrate) was 58.4% and 78.3% and 55.9%. The “PAP % changes vs. baseline” value ([1]; time 290, sesquihydrate) was 57.4% and 79.6% and 53.9%, the “PAP % changes vs. baseline” value ([1]; time 300, sesquihydrate) was 60.1% and 78.7% and 54.5% and the “PAP % changes vs. baseline” value ([1]; time 310, sesquihydrate) was 58.4% and 77.6% and 53.7%. The “PAP % changes vs. baseline” value ([1]; time 320, sesquihydrate) was 61.8% and 76.3% and 55.1% and the “PAP % changes vs. baseline” value ([1]; time 330, sesquihydrate) was 61.3% and 74.8% and 53.0%.

For O.O.O.O=C(O)c1ccc(CCN(CCc2ccccc2OCc2ccc(-c3ccc(C(F)(F)F)cc3)cc2Cl)[C@H]2CCCc3nc(C(=O)O)ccc32)cc1.O=C(O)c1ccc(CCN(CCc2ccccc2OCc2ccc(-c3ccc(C(F)(F)F)cc3)cc2Cl)[C@H]2CCCc3nc(C(=O)O)ccc32)cc1 [sesquihydrate ex. 6e], the BP ([1]; time 100) was 99 mmHg and 111 mmHg and 117 mmHg, the PAP ([1]; time 100) was 40.7 mmHg and 38.7 mmHg and 39.6 mmHg and the BP ([1]; time 110) was 101 mmHg and 112 mmHg and 116 mmHg. The PAP ([1]; time 110) was 36.5 mmHg and 37.6 mmHg and 35.4 mmHg, the BP ([1]; time 120) was 101 mmHg and 114 mmHg and 115 mmHg and the PAP ([1]; time 120) was 34.3 mmHg and 36.4 mmHg and 30.8 mmHg. The BP ([1]; time 130) was 101 mmHg and 114 mmHg and 115 mmHg, the PAP ([1]; time 130) was 32.3 mmHg and 35.7 mmHg and 28.6 mmHg and the BP ([1]; time 140) was 99 mmHg and 120 mmHg and 114 mmHg. For the same molecule, the PAP ([1]; time 140) was 30.8 mmHg and 35.0 mmHg and 27.5 mmHg, the BP ([1]; time 150) was 99 mmHg and 121 mmHg and 114 mmHg and the PAP ([1]; time 150) was 30.3 mmHg and 29.0 mmHg and 26.6 mmHg. For the same molecule, the BP ([1]; time 160) was 100 mmHg and 122 mmHg and 114 mmHg, the PAP ([1]; time 160) was 29.0 mmHg and 30.3 mmHg and 26.9 mmHg and the BP ([1]; time 170) was 101 mmHg and 121 mmHg and 115 mmHg. For the same molecule, the PAP ([1]; time 170) was 28.0 mmHg and 28.3 mmHg and 25.1 mmHg, the BP ([1]; time 180) was 99 mmHg and 119 mmHg and 115 mmHg and the PAP ([1]; time 180) was 25.8 mmHg and 30.8 mmHg and 25.3 mmHg. The BP ([1]; time 190) was 99 mmHg and 123 mmHg and 114 mmHg, the PAP ([1]; time 190) was 25.1 mmHg and 30.8 mmHg and 23.9 mmHg and the BP ([1]; time 200) was 98 mmHg and 116 mmHg and 113 mmHg. For the same molecule, the PAP ([1]; time 200) was 25.5 mmHg and 30.6 mmHg and 24.6 mmHg, the BP ([1]; time 210) was 99 mmHg and 117 mmHg and 116 mmHg and the PAP ([1]; time 210) was 25.0 mmHg and 30.8 mmHg and 24.2 mmHg. For the same molecule, the BP ([1]; time 220) was 97 mmHg and 123 mmHg and 114 mmHg, the PAP ([1]; time 220) was 24.3 mmHg and 32.9 mmHg and 23.6 mmHg and the BP ([1]; time 230) was 97 mmHg and 119 mmHg and 114 mmHg. For the same molecule, the PAP ([1]; time 230) was 24.0 mmHg and 31.5 mmHg and 23.6 mmHg, the BP ([1]; time 240) was 97 mmHg and 119 mmHg and 112 mmHg and the PAP ([1]; time 240) was 24.3 mmHg and 31.0 mmHg and 23.5 mmHg. The BP ([1]; time 250) was 97 mmHg and 118 mmHg and 111 mmHg, the PAP ([1]; time 250) was 24.2 mmHg and 31.3 mmHg and 22.9 mmHg and the BP ([1]; time 260) was 96 mmHg and 116 mmHg and 112 mmHg. For the same molecule, the PAP ([1]; time 260) was 24.0 mmHg and 31.5 mmHg and 23.5 mmHg, the BP ([1]; time 270) was 99 mmHg and 115 mmHg and 109 mmHg and the PAP ([1]; time 270) was 24.5 mmHg and 29.8 mmHg and 22.6 mmHg. For the same molecule, the BP ([1]; time 280) was 97 mmHg and 111 mmHg and 110 mmHg, the PAP ([1]; time 280) was 23.9 mmHg and 29.8 mmHg and 22.8 mmHg and the BP ([1]; time 290) was 97 mmHg and 110 mmHg and 107 mmHg. For the same molecule, the PAP ([1]; time 290) was 23.5 mmHg and 30.3 mmHg and 22.0 mmHg, the BP ([1]; time 300) was 98 mmHg and 109 mmHg and 108 mmHg and the PAP ([1]; time 300) was 24.6 mmHg and 30.0 mmHg and 22.2 mmHg. The BP ([1]; time 310) was 97 mmHg and 109 mmHg and 105 mmHg, the PAP ([1]; time 310) was 23.9 mmHg and 29.6 mmHg and 21.9 mmHg and the BP [1, 2] was 94 mmHg and 108 mmHg and 105 mmHg. The PAP [1, 2] was 25.3 mmHg and 29.1 mmHg and 22.5 mmHg, the BP [1, 3] was 97 mmHg and 108 mmHg and 105 mmHg and the PAP [1, 3] was 25.1 mmHg and 28.5 mmHg and 21.6 mmHg.
